# pEC50: −log10 of the molar value.
# How the values were obtained:
# basilar artery [1] = assay: Contractile tension in isolated basilar artery (isometric myograph); conditions: isolated rat basilar artery; for Contractile response Emax: % of contraction evoked by 100 mM KCl; for pEC50: read-out: Contractile response EC50
# Method: (§1) Preparations were equilibrated unstretched for 30 min.
# middle cerebral artery = assay: Contractile tension in isolated middle cerebral artery (isometric myograph); conditions: isolated rat middle cerebral artery; for Contractile response Emax: % of contraction evoked by 100 mM KCl; for pEC50: read-out: Contractile response EC50
# Method: as §1
# coronary artery = assay: Contractile tension in isolated coronary artery (isometric myograph); conditions: isolated rat coronary artery; for Contractile response Emax: % of contraction evoked by 100 mM KCl
# Method: as §1
# carotid artery = assay: Contractile tension in isolated carotid artery (isometric myograph); conditions: isolated rat carotid artery; for Contractile response Emax: % of contraction evoked by 100 mM KCl
# Method: as §1
# femoral artery = assay: Contractile tension in isolated femoral artery (isometric myograph); conditions: isolated rat femoral artery; for Contractile response Emax: % of contraction evoked by 100 mM KCl
# Method: as §1
# cerebral blood flow = assay: Relative cerebral blood flow by laser Doppler flowmetry in anesthetized rats; format: in vivo, rat; conditions: for Relative cerebral blood flow (rCBF) in cerebral cortex: 0.3 mg/kg infused into left internal carotid artery, anesthetized rats
# Method: Pentobarbital-anaesthetized mechanically-ventilated male rats (250-300 g, Charles River) were maintained at 37.0±0.5° C. A femoral vein and artery were cannulated to monitor mean arterial blood pressure, heart rate and arterial blood gases. The left common carotid artery was ligated. The animals were placed in a stereotaxic frame and relative cerebral blood flow (rCBF) was measured by a laser Doppler flow probe (Model PF2B, Perimed) affixed to the thinned skull above the vascular territory of the left middle cerebral artery (2 mm posterior to Bregma, 3 mm lateral to midline). Changes in rCBF were expressed as a percentage of baseline and recorded for 20 minutes beginning at the onset of drug or vehicle infusion. S1P, DHS1P or vehicle were infused (100 μl/2 minutes) into the left internal carotid artery. Some rats were pretreated with suramin via infusion (200 μl/2 min) into the left femoral vein.
# mouse basilar arteries = assay: Constriction of mouse basilar artery; conditions: data not shown
# rabbit basilar arteries = assay: Constriction of rabbit basilar artery; conditions: data not shown
# [2] = test system: S1P-induced vasoconstriction of basilar artery; assay: Modulation of S1P-induced vasoconstriction in isolated basilar artery; design: species or system rat
# basilar artery [3] = test system: basilar artery; design: species or system rat
# [4] = read-out: Contractile response EC50
compound,measurement,setting,value
"CCCCCCCCCCCCC/C=C/[C@@H](O)[C@@H](N)COP(=O)(O)O [S1P, sphingosine-1-phosphate]",Contraction (in words),basilar artery [1],robust contraction
same,Contractile response Emax,basilar artery [1],96.7 % KCl
same,pEC50,basilar artery [1],6.55
same,Contraction (in words),middle cerebral artery,robust contraction
same,Contractile response Emax,middle cerebral artery,77.6 % KCl
same,pEC50,middle cerebral artery,6.46
same,Contraction (in words),coronary artery,weakly constricted
same,Contractile response Emax,coronary artery,16.9 % KCl
same,Contraction (in words),carotid artery,unresponsive
same,Contractile response Emax,carotid artery,5.2 % KCl
same,Contraction (in words),femoral artery,unresponsive
same,Contractile response Emax,femoral artery,3.6 % KCl
same,Relative cerebral blood flow (rCBF) in cerebral cortex,cerebral blood flow,decreased
same,Constriction (in words),mouse basilar arteries,able to constrict
same,Constriction (in words),rabbit basilar arteries,able to constrict
CCCCCCCCCCCCC/C=C/[C@@H](O)[C@@H](N)CO [sphingosine],Contractile response to S1P after preincubation with sphingosine together with DMS,"[2]; sphingosine 10 μM plus DMS 20 μM, added 30 min prior to S1P",fully blocked
"CCCCCCCCCCCCCCC[C@@H](O)[C@@H](N)COP(=O)(O)O [DHS1P, dihydrosphingosine-1-phosphate]",Contraction (in words),basilar artery [1],less effectively than S1P
same,Contractile response Emax,basilar artery [1],58.8 % KCl
same,pEC50,basilar artery [1],6.62
same,Contractile response Emax,coronary artery,15.9 % KCl
same,Contractile response Emax,carotid artery,5.9 % KCl
same,Contractile response Emax,femoral artery,6.3 % KCl
same,Relative cerebral blood flow (rCBF) in cerebral cortex,cerebral blood flow,"reduced rCBF, although less potently"
Cc1ccc(C(=O)Nc2ccc(S(=O)(=O)O)c3cc(S(=O)(=O)O)cc(S(=O)(=O)O)c23)cc1NC(=O)c1cccc(NC(=O)Nc2cccc(C(=O)Nc3cc(C(=O)Nc4ccc(S(=O)(=O)O)c5cc(S(=O)(=O)O)cc(S(=O)(=O)O)c45)ccc3C)c2)c1 [suramin],Contractile response to S1P after preincubation with suramin,"[2]; 10 μM suramin, added 30 min prior to S1P",markedly depressed
same,Contractile response to 5-HT after preincubation with suramin,basilar artery [3]; data not shown,did not modify
same,S1P's effect on rCBF after suramin pretreatment,"cerebral blood flow; suramin 16 mg/kg via femoral vein, S1P 0.3 mg/kg",abolished
"NCCc1c[nH]c2ccc(O)cc12 [5-HT, 5-hydroxytryptamine]",Contractile response Emax,basilar artery [1],99.5 % KCl
same,pEC50,basilar artery [1],7.20
same,Contractile response Emax,middle cerebral artery,73.2 % KCl
same,pEC50,middle cerebral artery,7.36
same,Contractile response Emax,coronary artery,119.3 % KCl
same,pEC50,coronary artery; [4],6.62
same,Contractile response Emax,carotid artery,101.1 % KCl
same,pEC50,carotid artery; [4],5.50
same,Contractile response Emax,femoral artery,133.2 % KCl
same,pEC50,femoral artery; [4],6.91
Pertussis toxin,Effect of toxin incubation on S1P-induced vasoconstriction (in words),[2]; basilar artery segments treated in vitro with toxin,did not modify
same,Response to 5-HT1 receptor agonist 5-carboxamidotryptamine after incubation with toxin,"basilar artery [3]; without toxin 92±10, n=4, p<0.05",30±2 % of KCl-evoked contraction
"[Cl-].[K+] [KCl, potassium chloride]",Contractile response to KCl,basilar artery [1]; 100 mM KCl,1.70 mN/mm
same,Contractile response to KCl,middle cerebral artery; 100 mM KCl,1.05 mN/mm
same,Contractile response to KCl,coronary artery; 100 mM KCl,1.87 mN/mm
same,Contractile response to KCl,carotid artery; 100 mM KCl,2.28 mN/mm
same,Contractile response to KCl,femoral artery; 100 mM KCl,4.52 mN/mm
